Patent US20230029385A1, “2-METHYL-AZA-QUINAZOLINES” (Bayer Aktiengesellschaft, priority 2019, published 2023)

Experiments:
[1] = target: T1, hK-RasG12C activation by hSOS1 at high GTP concentration (Homo sapiens, UniProt Q07889); assay: hK-RasG12C activation assay by hSOS1 at high GTP concentration (Biochemical Assay 2, HTRF); settings: mean; assay 2, high concentration of 50 μM GTP; read-out: K-Ras activation by SOS high GTP (off-HTRF) IC50 - [mol/l] (mean)
T1 construct: His10-hSOS1; made in house; host or cells: E. coli BL21 (DE3)
T1 sequence (Q07889 with tags, fused parts or gaps): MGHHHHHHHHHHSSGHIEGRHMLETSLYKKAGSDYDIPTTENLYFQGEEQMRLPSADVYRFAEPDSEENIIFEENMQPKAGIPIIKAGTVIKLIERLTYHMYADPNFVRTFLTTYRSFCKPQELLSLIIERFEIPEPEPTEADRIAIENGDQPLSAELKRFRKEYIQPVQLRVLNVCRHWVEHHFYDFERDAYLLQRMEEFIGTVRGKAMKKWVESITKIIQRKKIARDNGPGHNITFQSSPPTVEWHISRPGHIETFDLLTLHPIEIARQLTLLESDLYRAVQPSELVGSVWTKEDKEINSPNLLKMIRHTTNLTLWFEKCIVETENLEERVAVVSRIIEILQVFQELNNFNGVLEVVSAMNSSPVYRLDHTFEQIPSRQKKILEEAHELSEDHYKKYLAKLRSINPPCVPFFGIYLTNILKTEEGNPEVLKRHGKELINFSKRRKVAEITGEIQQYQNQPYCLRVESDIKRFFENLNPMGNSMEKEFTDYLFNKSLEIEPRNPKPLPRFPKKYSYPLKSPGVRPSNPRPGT
From the text: Biochemical Assay 2: hK-RasG12C Activation Assay by hSOS1 at High GTP Concentration
This assay quantifies human SOS1-mediated nucleotide exchange of human K-Ras^G12C (hK-RasG12C) preloaded with a fluorescent […] and in presence of an excess of free GTP. Loaded hK-RasG12C generates a high HTRF-signal by energy transfer from antiGST-Terbium (FRET donor) bound to hK-Ras to the loaded fluorescent GDP analog (FRET-acceptor). hSOS1 activity exchanges the fluorescent GDP for non-fluorescent GTP and therefore leads to a reduction of the HTRF signal.
The fluorescent GDP-analog EDA-GDP-Dy647P1 (2′/3′-O-(2-Aminoethyl-carbamoyl)-guanosine-5′-diphosphate labelled with Dy647P1 (Dyomics GmbH, Germany)) is synthesized by Jena Biosciences GmbH (Germany) and supplied as a 1 mM aqueous solution.
The expression and purification of N-terminal GST-tagged human K-RasG12C and N-terminal His-tagged human SOS1 is described below. Concentrations of protein batches used are optimized to be within the linear range of the HTRF signal.
Preparation of GST-tagged hK-RasG12C loaded with fluorescent nucleotide is performed as follows: incubation of 11.5 μM hK-Ras^G12C with 5-fold excess GDP-Dy647 nucleotide (54 μM) in 500 μl NLS-buffer (RAS activation Kit Jena Bioscience, Kat. #PR-950) for 10 min at 37° C. Addition of 20 μl 1 M MgCl2 (Sigma) to final 40 mM and store on ice. Purification into buffer (10 mM HEPES pH 7.4 (Applichem), 150 mM NaCl (Sigma), 5 mM MgCl2 (Sigma)) by use of a PD-Minitrap desalting column (GE Healthcare). Concentration of 1 ml purified hK-Ras-GDP-Dy647 is approx. 4-5 μM.
(§1) The assay buffer containes 10 mM HEPES pH 7.4 (Applichem), 150 mM NaCl (Sigma), 5 mM MgCl2 (Sigma), 1 mM DTT (Thermofisher), 0.05% BSA Fraction V, pH 7.0, (ICN Biomedicals), 0.0025% (v/v) Igepal (Sigma).
A Ras working solution is prepared in assay buffer containing typically 80 nM loaded GST-hK-RasG12C-EDA-GDP-Dy647P1 and 2 nM antiGST-Tb (Cisbio, France). A hSOS1 working solution is prepared in assay buffer containing typically 8 nM His-hSOS1 and 100 μM GTP (Jena Bioscience, Germany). An inhibitor control solution is prepared in assay buffer containing the same concentration of hSOS1 without GTP.
Alternatively, the inhibitor control solution is prepared by supplementing the hSOS1 working solution with 20 μM of 6,7-dimethoxy-N-[(1R)-1-(1-naphthyl)ethyl]quinazolin-4-amine which is used to calibrate the assay.
(§2) Fifty nl of a 100-fold concentrated solution of the test compound in DMSO are transferred into a black microtiter test plate (384 or 1536, Greiner Bio-One, Germany). For this, either a Hummingbird liquid handler (Digilab, Mass., USA) or an Echo acoustic system (Labcyte, Calif., USA) is used.
(§3) All steps of the assay are performed at 20° C. A volume of 2.5 μl of the Ras working solution is added to all wells of the test plate using a Multidrop dispenser (Thermo Labsystems). After 2 min preincubation, 2.5 μl of the hSOS1 working solution are added to all wells except for those wells at the side of the test plate that are subsequently filled with 2.5 μl of the inhibitor control solution. After 20 min incubation the fluorescence is measured with a Pherastar (BMG, Germany) using the HTRF module (excitation 337 nm, emission 1: 620 nm, emission 2: 665 nm).
(§4) The ratiometric data (emission 2 divided by emission 1) are normalized using the controls (DMSO=0% inhibition, inhibition control wells with inhibitor control solution=100% inhibition). Compounds are tested in duplicates at up to 11 concentrations (for example 20 μM, 5.7 μM, 1.6 μM, 0.47 μM, 0.13 μM, 38 nM, 11 nM, 3.1 nM, 0.89 nM, 0.25 nM and 0.073 nM). IC50 values are calculated by 4-Parameter fitting using a commercial software package (Genedata Screener, Switzerland).

[2] = target: T2, hK-RasG12C activation by hSOS1 (Homo sapiens, UniProt Q07889); assay: hK-RasG12C activation assay by hSOS1 (Biochemical Assay 3, HTRF); settings: mean; assay 3, loading with fluorescent GTP-analog; read-out: K-RasG12C activation by SOS IC50 - [mol/l] (mean)
T2 construct: His10-hSOS1; made in house; host or cells: E. coli BL21 (DE3)
T2 sequence (Q07889 with tags, fused parts or gaps): T1 sequence (Q07889 with tags, fused parts or gaps)
From the text: Biochemical Assay 3: hK-RasG12C Activation Assay by hSOS1
K-Ras is a small GTPase that can bind GDP and GTP. The guanine nucleotide exchange factor SOS1 catalyzes the activation of K-Ras by promoting the exchange of GDP to GTP. SOS1 binds to K-Ras-GDP thereby opening the GDP-binding pocket to facilitate GDP release. Rebinding of excess nucleotide leads to dissociation of the K-Ras-SOS1 intermediate complex leaving K-Ras loaded with the nucleotide.
This assay quantifies human SOS1- (hSOS1-) mediated loading of human K-Ras^G12C-GDP (hK-RasG12C-GDP) with a fluorescent GTP-analog. Detection of successful loading is achieved by measuring homogenous time-resolved fluorescence resonance energy transfer (HTRF) from antiGST-Terbium (FRET donor) bound to GST-hK-RasG12C (see below) to the loaded fluorescent GTP analog (FRET-acceptor).
The fluorescent GTP-analog EDA-GTP-Dy647P1 (2′/3′-O-(2-Aminoethyl-carbamoyl)-guanosine-5′-triphosphate labelled with Dy647P1 (Dyomics GmbH, Germany)) is synthesized by Jena Biosciences GmbH (Germany) and supplied as a 1mM aqueous solution.
as §1
The expression and purification of N-terminal GST-tagged human K-RasG12C and N-terminal His-tagged hSOS1 is described below. Concentrations of protein batches used are optimized to be within the linear range of the HTRF signal. A hRas working solution is prepared in assay buffer containing typically 100 nM GST-hK-RasG12C and 2 nM antiGST-Tb (Cisbio, France). A hSOS1 working solution is prepared in assay buffer containing typically 20nM hSOS1 and 200 nM EDA-GTP-Dy647P1. An inhibitor control solution is prepared in assay buffer containing 200 nM EDA-GTP-Dy647P1 without hSOS1.
as §2
as §3, with “the hRas” for “the Ras”, “After 10” for “After 2”, “After 30” for “After 20”
as §4

[3] = target: T3, K-Ras-wt activation by SOS (Homo sapiens, UniProt Q07889); assay: K-Ras-wt activation by SOS; format: biochemical; settings: mean; K-Ras wild type; read-out: K-Ras-wt activation by SOS IC50 - [mol/l] (mean)
T3 sequence (Q07889 564-1049): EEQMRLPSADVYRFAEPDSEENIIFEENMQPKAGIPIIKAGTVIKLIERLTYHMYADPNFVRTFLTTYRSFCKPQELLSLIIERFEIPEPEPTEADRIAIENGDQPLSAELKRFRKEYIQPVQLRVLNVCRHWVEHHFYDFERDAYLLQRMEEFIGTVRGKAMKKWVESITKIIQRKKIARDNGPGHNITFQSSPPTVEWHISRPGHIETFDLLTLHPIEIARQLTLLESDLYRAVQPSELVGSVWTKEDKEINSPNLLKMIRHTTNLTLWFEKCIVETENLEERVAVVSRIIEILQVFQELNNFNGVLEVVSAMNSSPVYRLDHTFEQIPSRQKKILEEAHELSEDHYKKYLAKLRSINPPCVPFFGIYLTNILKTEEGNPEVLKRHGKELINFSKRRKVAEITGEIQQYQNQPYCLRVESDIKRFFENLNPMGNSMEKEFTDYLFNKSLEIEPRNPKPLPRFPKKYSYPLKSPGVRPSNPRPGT

[4] = target: T4, human SOS1 (hSOS1) with human K-RasG12C (hK-RasG12C) (Homo sapiens, UniProt Q07889); assay: hK-RasG12C interaction assay with hSOS1 (Biochemical Assay 1, HTRF); format: binding; settings: mean, read-out: K-RasG12C- SOS interaction assay IC50 - [mol/l] (mean)
T4 construct: His10-hSOS1; made in house; host or cells: E. coli BL21 (DE3)
T4 sequence (Q07889 with tags, fused parts or gaps): T1 sequence (Q07889 with tags, fused parts or gaps)
Protocol: Biochemical Assay 1: hK-RasG12C Interaction Assay with hSOS1
This assay quantifies the equilibrium interaction of human SOS1 (hSOS1) with human K-Ras^G12C (hK-RasG12C). Detection of the interaction is achieved by measuring homogenous time-resolved fluorescence resonance energy transfer (HTRF) from antiGST-Europium (FRET donor) bound to GST-K-RasG12C to anti-6His-XL665 bound to His-tagged hSOS1 (FRET-acceptor).
The assay buffer containes 5 mM HEPES pH 7.4 (Applichem), 150 mM NaCl (Sigma), 10 mM EDTA (Promega), 1 mM DTT (Thermofisher), 0.05% BSA Fraction V, pH 7.0, (ICN Biomedicals), 0.0025% (v/v) Igepal (Sigma) and 100 mM KF (FLUKA).
The expression and purification of N-terminal GST-tagged hK-RasG12C and N-terminal His-tagged hSOS1 is described below. Concentrations of protein batches used are optimized to be within the linear range of the HTRF signal. A Ras working solution is prepared in assay buffer containing typically 10 nM GST-hK-RasG12C and 2 nM antiGST-Eu(K) (Cisbio, France). A SOS1 working solution is prepared in assay buffer containing typically 20 nM His-hSOS1 and 10 nM anti-6His-XL665 (Cisbio, France). An inhibitor control solution is prepared in assay buffer containing 10 nM anti-6His-XL665 without hSOS1.
as §2
as §3, with “the SOS1” for “the hSOS1”, “After 60” for “After 20”, “1: 620nm,” for “1: 620 nm,”
as §4

[5] = combination of BAY-293 with ARS-853; cited from earlier work

Structure (SMILES) | IC50 [1] | IC50 [2] | IC50 [3] | IC50 [4] | anti-proliferative activity in vitro of the combination [5]
CC(=O)N[C@H]1CCN(c2cc3c(N[C@H](C)c4cccc(C(F)F)c4F)nc(C)nc3cn2)C1 | 197 nM | 144 nM | 101 nM | 79.8 nM | –
Cc1nc(N[C@H](C)c2cccc(C(F)F)c2F)c2cc(N3CCCC3)ncc2n1 | 320 nM | 251 nM | 172 nM | 185 nM | –
CC(=O)N[C@@H]1CCN(c2cc3c(N[C@H](C)c4cccc(C(F)F)c4F)nc(C)nc3cn2)C1 | 187 nM | 110 nM | 92.3 nM | 77.3 nM | –
Cc1nc(N[C@H](C)c2cccc(C(F)F)c2F)c2cc(F)ncc2n1 | > 20000 nM | > 20000 nM | > 20000 nM | > 20000 nM | –
CCOc1cc2c(N[C@H](C)c3cccc(C(F)F)c3F)nc(C)nc2cn1 | 851 nM | 357 nM | 308 nM | 134 nM | –
Cc1nc(N[C@H](C)c2cccc(C(F)F)c2F)c2cc(F)nc(C)c2n1 | – | > 20000 nM | > 20000 nM | > 20000 nM | –
CC(=O)N[C@@H]1CCN(c2cc3c(N[C@H](C)c4cccc(C(F)F)c4F)nc(C)nc3c(C)n2)C1 | 255 nM | 209 nM | 83.2 nM | 56.8 nM | –
CNCc1ccccc1-c1csc(C(C)Nc2nc(C)nc3cc(OC)c(OC)cc23)c1 (stereo not shown) [BAY-293] | – | – | – | – | Synergistic anti-proliferative activity
